Assay results reported in patent publication US6924400B2, “Triaromatic vitamin D analogues” (Galderma Research & Development, SNC, priority 2001, dated 2005).

How the values were obtained:
[1] = tested on: HL60 cells; test: Activity on the differentiation of HL60 cells (NBT reduction); format: cell-based; conditions: for AC50: Homo sapiens, HL-60, 96 h, HL60 cells, culturing for 4 days, NBT-positive cells counted; for differentiation-inducing activity on HL60 cells compared with calcitriol: comparison in words
From the text: The biological properties analogous to vitamin D may also be measured by means of the capacity of the product to induce the differentiation of promyelocytic leukemia cells HL60. The protocol and also the results obtained with the compounds according to the invention are described in Example 8 of the present patent application.
Calcitrol induces the differentiation of promyelocytic leukaemia cells (HL60) into monocytes/macrophages. This differentiation-inductive effect is a well-characterized marker of cellular vitamin D. One of the most important antimicrobial products of macrophages is hydrogen peroxide, which may be analysed experimentally by the reduction of NBT (Nitroblue Tetrazolium).
The method used is as follows: the HL60 cells are inoculated into 6-well plates and then treated immediately with a test compound. After culturing for 4 days, the cells are incubated with phorbol TPA ester and NBT for a short period and the differentiated cells, i.e., the ones that are positive to NBT, are counted.

[2] = biological target: T1, human VDR receptor (Homo sapiens, UniProt P11473); test: VDR agonist activity, HeLa cotransfection with reporter plasmid p240Hase-CAT; format: cell-based; conditions: for AC50: HeLa cells, treatment for 18 hours, CAT activity by ELISA; for VDR agonist activity compared with calcitriol: comparison in words
T1 construct: expressed in transfected cells; host or cells: HeLa
T1 sequence (P11473 1-427): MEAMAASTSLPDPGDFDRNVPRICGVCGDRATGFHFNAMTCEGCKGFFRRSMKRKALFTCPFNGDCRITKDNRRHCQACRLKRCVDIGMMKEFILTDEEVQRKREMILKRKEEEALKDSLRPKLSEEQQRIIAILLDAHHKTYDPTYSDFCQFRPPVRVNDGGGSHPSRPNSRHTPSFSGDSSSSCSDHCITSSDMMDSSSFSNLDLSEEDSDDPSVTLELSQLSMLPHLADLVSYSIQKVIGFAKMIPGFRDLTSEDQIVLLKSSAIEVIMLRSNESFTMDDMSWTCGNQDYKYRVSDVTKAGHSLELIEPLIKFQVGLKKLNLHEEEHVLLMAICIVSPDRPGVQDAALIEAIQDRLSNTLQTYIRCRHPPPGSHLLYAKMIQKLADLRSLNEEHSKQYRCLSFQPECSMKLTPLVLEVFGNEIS
Method: By way of example, the VDR agonist activity may be tested on the HeLa cell line by cotransfection of an expression vector of the human VDR receptor and of the reporter plasmid p240Hase-CAT. The agonist activity may also be characterized in this cotransfection system, by determining the dose required to achieve 50% of the maximum activity of the product (AC50).
18 hours after cotransfection, the test compound is added to the medium. After treatment for 18 hours, the CAT activity of the cell lysates is assayed by means of an ELISA test (Enzyme Linked ImmunoSorbent Assay, sold by Roche Molecular Biochemicals).

[3] = tested on: normal human keratinocytes; test: Activity on the proliferation of human keratinocytes (BrdU incorporation); conditions: for IC50: Homo sapiens, Keratinocyte, 120 h, read-out: IC50-proliferation of KHNs
Method: The biological properties analogous to vitamin D may also be measured by means of the capacity of the product to inhibit the proliferation of normal human keratinocytes (NHK in culture). The product is added to NHKs cultured under conditions promoting the proliferative state. The product is left in contact with the cells for five days. The number of proliferative cells is measured by incorporation of bromodeoxyuridine (BRdU) into the DNA.
The method used is as follows: normal human keratinocytes are inoculated at low density into a 24-well plate. After 4 hours, the test compounds are added to the culture medium. After culturing for 5 days, the proliferation of the keratinocytes is determined by incorporating 5-bromo-2′-deoxyuridine (BrdU) into the DNA. The amount of BrdU incorporated is then measured using the ELISA test (Enzyme Linked ImmunoSorbent Assay, sold by Roche Molecular Biochemicals).

Structure (SMILES)	AC50 [1] [nM]	AC50 [2] [nM]	IC50 [3] [nM]	differentiation-inducing activity on HL60 cells compared with calcitriol [1]	VDR agonist activity compared with calcitriol [2]	activity on keratinocyte proliferation relative to calcitriol ([3]; fold greater than calcitriol)	inhibitory activity on keratinocyte proliferation compared with calcitriol ([3]; comparison in words)
CCCc1cc(C(O)(CC)CC)ccc1-c1cc(OCc2ccc(CO)c(CO)c2)ccc1C [Example 1, {5-[4′-(1-Ethyl-1-hydroxypropyl)-6-methyl-2′-propylbiphenyl-3-yloxy-methyl]-2-hydroxymethylphenyl}methanol]	7.6	2.4	16				
CCCc1cc(C(O)(CC)CC)ccc1-c1cc(OCc2ccc(CO)c(CO)c2)ccc1CC [Example 3, {4-[6-Ethyl-4′-(1-ethyl-1-hydroxypropyl)-2′-propylbiphenyl-3-yloxymethyl]-2-hydroxymethylphenyl}methanol]	11	2.2	15				
CCCc1cc(C(O)(CC)CC)ccc1-c1cc(CCc2ccc(CO)c(CO)c2)ccc1C [Example 5, (4-{2-[4′-(1-Ethyl-1-hydroxypropyl)-6-methyl-2′-propylbiphenyl-3-yl]ethyl}-2-hydroxymethylphenyl)methanol]	1.8	0.6	2.4	markedly superior activity	superior activity	more than 5 times	
C=C1/C(=C\C=C2/CCC[C@]3(C)[C@@H]([C@H](C)CCCC(C)(C)O)CC[C@@H]23)C[C@@H](O)C[C@@H]1O [Calcitriol, 1,25-dihydroxyvitamin D3, reference compound]	10.7						
CCC(O)(CC)c1ccc(-c2cc(NCc3ccc(CO)c(CO)c3)ccc2C)c(C)c1 [Example 6, (4-{[4′-(1-Ethyl-1-hydroxypropyl)-6,2′-dimethylbiphenyl-3-ylamino]-methyl}-2-hydroxymethylphenyl)methanol]	147	50	122	less good activity compared with calcitriol	less good activity compared with calcitriol		less good activity compared with calcitriol
CCc1cc(C(O)(CC)CC)ccc1-c1cc(OCc2ccc(CO)c(CO)c2)ccc1CC [Example 2, {5-[6,2′-Diethyl-4′-(1-ethyl-1-hydroxypropyl)biphenyl-3-yloxymethyl]-2-hydroxymethylphenyl}methanol]	15	4.1	53				
CCc1ccc(OCc2ccc(CO)c(CO)c2)cc1-c1ccc(C(O)(CC)CC)cc1C(C)C [Example 4, {4-[6-Ethyl-4′-(1-ethyl-1-hydroxypropyl)-2′-isopropylbiphenyl-3-yloxymethyl]-2-hydroxymethylphenyl}methanol]	27	3.2	26				
